ChEMBL document CHEMBL5500393, “Discovery and Optimization of Novel SaFabI Inhibitors as Specific Therapeutic Agents for MRSA Infection” (J Med Chem, 2024)
≈ marks a conversion by molar mass, not a printed value.

Columns and labels:
Enterococcus faecalis = test: Antimicrobial activity against Enterococcus faecalis ATCC29212 measured after 24 hrs by CLSI protocol based microdilution method; assay type: functional
[1] = biological target: T1, Enoyl-[acyl-carrier-protein] reductase [NADPH] FabI (Staphylococcus aureus) (UniProt Q6GI75); test: Inhibition of N-terminal his 6 tagged Staphylococcus aureus Fabi (1 to […] residues) expressed in Escherichia coli BL21 at 10 uM incubated for 30 mins in presence of NADPH by fluorescence based microplate reader analysis relative to control
T1 sequence (whole entry): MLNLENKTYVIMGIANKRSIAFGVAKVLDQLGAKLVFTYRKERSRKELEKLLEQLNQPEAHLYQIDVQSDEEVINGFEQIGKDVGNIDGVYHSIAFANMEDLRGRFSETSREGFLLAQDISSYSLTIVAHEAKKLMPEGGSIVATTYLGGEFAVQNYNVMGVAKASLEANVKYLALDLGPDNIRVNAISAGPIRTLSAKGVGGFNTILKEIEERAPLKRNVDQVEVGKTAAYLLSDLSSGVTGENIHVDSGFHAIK

Escherichia coli = test: Antimicrobial activity against Escherichia coli ATCC25922 measured after 24 hrs by CLSI protocol based microdilution method; assay type: functional
Staphylococcus aureus [2] = test: Antimicrobial activity against […] Staphylococcus aureus ATCC43300 measured after 24 hrs by CLSI protocol based microdilution method; assay type: functional
Pseudomonas aeruginosa = test: Antimicrobial activity against Pseudomonas aeruginosa PAO1 measured after 24 hrs by CLSI protocol based microdilution method; assay type: functional
Staphylococcus aureus [3] = test: Antimicrobial activity against […] Staphylococcus aureus ATCC33591 measured after 24 hrs by CLSI protocol based microdilution method; assay type: functional
Staphylococcus aureus [4] = test: Antimicrobial activity against methicillin-susceptible Staphylococcus aureus ATCC29213 measured after 24 hrs by CLSI protocol based microdilution method; assay type: functional
Acinetobacter baumannii = test: Antimicrobial activity against Acinetobacter baumannii ATCC19606 measured after 24 hrs by CLSI protocol based microdilution method; assay type: functional
[5] = biological target: T1, Enoyl-[acyl-carrier-protein] reductase [NADPH] FabI (Staphylococcus aureus); test: Inhibition of N-terminal his 6 tagged Staphylococcus aureus Fabi (1 to […] residues) expressed in Escherichia coli BL21 at 1 uM incubated for 30 mins in presence of NADPH by fluorescence based microplate reader analysis relative to control
Candida albicans = test: Antimicrobial activity against Candida albicans SC5314 measured after 48 hrs by CLSI protocol based microdilution method; assay type: functional
Enterococcus faecium = test: Antimicrobial activity against Enterococcus faecium ATCC19434 measured after 24 hrs by CLSI protocol based microdilution method; assay type: functional
Staphylococcus aureus [6] = test: Antimicrobial activity against […] Staphylococcus aureus NRS271 measured after 24 hrs by CLSI protocol based microdilution method; assay type: functional
Staphylococcus aureus [7] = test: Antimicrobial activity against […] Staphylococcus aureus USA300 measured after 24 hrs by CLSI protocol based microdilution method; assay type: functional
Staphylococcus aureus [8] = test: Antimicrobial activity against methicillin-susceptible Staphylococcus aureus ATCC25923 measured after 24 hrs by CLSI protocol based microdilution method; assay type: functional

Compound | MIC (Enterococcus faecalis) [µg/mL] | inhibition [1] [%] | MIC (Escherichia coli) [µg/mL] | MIC (Staphylococcus aureus [2]) [µg/mL] | MIC (Pseudomonas aeruginosa) [µg/mL] | MIC (Staphylococcus aureus [3]) [µg/mL] | MIC (Staphylococcus aureus [4]) [µg/mL] | MIC (Acinetobacter baumannii) [µg/mL] | inhibition [5] [%] | MIC (Candida albicans) [µg/mL] | MIC (Enterococcus faecium) [µg/mL] | MIC (Staphylococcus aureus [6]) [µg/mL] | MIC (Staphylococcus aureus [7]) [µg/mL] | MIC (Staphylococcus aureus [8]) [µg/mL]
O=C1CC(c2nc3ccccc3[nH]2)CN1c1cccc(Cl)c1F (stereo not given) | > 32 | 16.9 | > 32 | > 32 | > 32 | > 32 | > 32 | > 32 | 1.7 | > 32 | > 32 | > 32 | > 32 | –
Cn1c(C2CC(=O)N(c3noc4ccccc34)C2)nc2ccccc21 (stereo not given) | > 32 | 11.6 | > 32 | > 32 | > 32 | > 32 | > 32 | > 32 | 2.5 | > 32 | > 32 | > 32 | > 32 | > 32
CC(=O)c1ccc(N2CC(c3nc4ccccc4n3C)CC2=O)cc1Cl (stereo not given) | > 32 | 3.8 | > 32 | > 32 | > 32 | > 32 | > 32 | > 32 | 5.5 | > 32 | > 32 | > 32 | > 32 | > 32
COc1ccc(N2CC(c3nc4ccccc4n3C)CC2=O)cc1OC (stereo not given) | > 32 | 22.5 | > 32 | > 32 | > 32 | > 32 | > 32 | > 32 | 1.6 | > 32 | > 32 | > 32 | > 32 | > 32
COc1cccc(OC)c1C(=O)N[C@@H]1C(=O)N2[C@@H]1SC(C)(C)[C@@H]2C(=O)O [METHICILLIN] | – | – | – | > 32 | – | > 32 | 2 (≈ 5.26 µM) | – | – | – | – | > 32 | > 32 | 2 (≈ 5.26 µM)
Cn1c(C2CC(=O)N(c3cccc(Br)c3OCC(F)(F)F)C2)nc2ccccc21 (stereo not given) | > 32 | 18.8 | > 32 | > 32 | > 32 | > 32 | > 32 | > 32 | 2.1 | > 32 | > 32 | > 32 | > 32 | > 32
Cn1c(C(=O)Nc2cccc(C(=O)NCc3ccccc3)c2)nc2ccccc21 | > 32 | 4 | > 32 | > 32 | > 32 | > 32 | > 32 | > 32 | 6.8 | > 32 | > 32 | > 32 | > 32 | > 32
Cc1c(N)cccc1N1CC(c2nc3ccccc3n2C)CC1=O (stereo not given) | > 32 | 50.2 | > 32 | > 32 | > 32 | > 32 | > 32 | > 32 | 6.1 | > 32 | > 32 | > 32 | > 32 | > 32
Cc1c(Br)cccc1N1CC(c2nc3ccccc3[nH]2)CC1=O (stereo not given) | > 32 | 36.6 | > 32 | > 32 | > 32 | > 32 | > 32 | > 32 | 11.6 | > 32 | > 32 | > 32 | > 32 | > 32
O=c1sn(-c2cccc3ccccc23)c(=O)n1Cc1ccccc1 | – | > 70 | – | – | – | – | – | – | – | – | – | – | – | –
Cn1c(C2CC(=O)N(c3ccc(F)c(F)c3)C2)nc2ccccc21 (stereo not given) | > 32 | 40.1 | > 32 | > 32 | > 32 | > 32 | > 32 | > 32 | 2.7 | > 32 | > 32 | > 32 | > 32 | > 32
CCCCCC/C=C/CCCCCCCc1cccc(O)c1C(=O)O | – | > 70 | – | – | – | – | – | – | – | – | – | – | – | –
Cc1c(Br)cccc1N1C[C@H](c2nc3ccccc3n2C)CC1=O | – | – | – | > 32 | – | > 32 | > 32 | – | – | – | – | > 32 | > 32 | > 32
O=C(N/N=C/c1cc(O)c(O)cc1O)c1cc2ccccc2cc1O | – | > 70 | – | – | – | – | – | – | – | – | – | – | – | –
